In a melting point compilation (Tetko et al.; mined from patent text by program, amines drawn as free bases though some values may be those of a salt):

SMILES | melting point [°C]
CC1=C(C#N)C(c2cccc3ncc(Cc4ccccc4)cc23)C(C(=O)OC(C)C)=C(C)N1 (configuration not stated) | 188 to 190
COC(=O)Cc1ccc(OCc2ccc(OCc3nc(-c4ccccc4)oc3C)cc2)cc1 | 93 to 94
CC(C)c1nccn1-c1ccc([N+](=O)[O-])cc1SC(Cl)(Cl)Cl | 135
OCC1c2ccccc2-c2c1c1ccccc1c1ccccc21 (configuration not stated) | 143 to 145
CCc1nc2nccc(C)c2[nH]1 | 117 to 119
CCOCc1nc2c(N)nc3ccccc3c2n1CC1(O)CCC2(CC1)OCCO2 | 207 to 209
CCN1C(=O)c2ccc(N)cc2C1=O | 169 to 171
COc1ccc(C(C#N)CNC(=O)C(N)=O)cc1OC1CCCC1 (configuration not stated) | 176 to 177
CC(C)(C)C(O)CN1C(=O)C(N)C(=O)N(c2ccccc2F)c2ccccc21 (configuration not stated) | 104 to 105
O=[N+]([O-])c1ccc(SSn2nccn2)c(C(Cl)(Cl)Cl)c1 | 189
Cc1cc2c(cc1C)C(C(F)(F)F)(C(F)(F)F)c1cc3c(cc1O2)Oc1cc(C)c(C)cc1C3(C(F)(F)F)C(F)(F)F | 242 to 243
c1ccc(Oc2ccc(OCn3cnc4ccccc43)cc2)cc1 | 112
CC[C@@H]1O[C@](/C=C/C2CC2)(C(F)(F)F)c2cc(F)ccc2NC1=O (relative stereo) | 148 to 149
CC(C)c1c(Br)ccc(N)c1C#N | 82 to 85
O=c1nc(-c2ccc3c(n2)CCCC3)sc2ccccc12 | 232 to 233
Cc1c(C(F)(F)F)n[nH]c1-c1ccc(Cl)cc1 | 139
COc1ccc(CC(=O)NCCc2ccc(N)cc2)cc1 | 112 to 114
COC(=O)CNc1cc2cc(OC)ccc2cc1OCc1ccccc1 | 129 to 131
O=C(NC1CCCCC1)Oc1ccccc1-c1ccccc1 | 119 to 121
CCOC(=O)c1cccc(Nc2nccc(-c3cccnc3)n2)c1 | 197 to 199
Nc1c(Cl)cccc1C(=O)c1ccccc1F | 86 to 87.5
CC(C)C(=O)NCCNC(=O)OC(C)(C)C | 116 to 117
CCCCCCCCc1ccc(OCC(O)Cn2cccn2)cc1 (configuration not stated) | 88
O=C(c1ccccc1)c1c(Cl)cc(CBr)cc1Cl | 111 to 113
Cc1cc(Br)cnc1NCCCNC1=NS(=O)N=C1NCc1ccc(F)cc1 (configuration not stated) | 125 to 126
Brc1cn2c(Br)cnc2c(N2CCCCC2)n1 | 72

SMILES | melting point [°C]
CC(C)(C)c1cccc(C[C@@H](NC(=O)c2ccc(F)c3ccccc23)[C@@H](O)c2cccc(Cl)c2)c1 (racemic) | 76 to 78
CCc1ncc2n1-c1ccc(Cl)cc1C(c1ccccc1F)=NC2 | 140 to 143
Nc1nc2ccccc2c2c1nc1n2CCOC1 | 258 to 259
CN1CCC(c2nn(-c3cccc(C(F)(F)F)c3)c3ccccc23)CC1 | 103 to 105
COc1ccc(-c2cc(-c3ccccc3)c(-c3ccccc3)s2)c(OC)c1 | 107 to 110
COc1cccc(-n2c(-c3sc(Nc4ccc(Cl)cc4)nc3C)nc3ccccc3c2=O)c1 | 243 to 244
CC(C)Nc1nc2cc(C#N)ccc2[nH]1 | 185 to 190
COc1cc(C)cc(OC)c1N(CC1CCCCC1)C(=O)CNC(=O)c1cc2ccccc2n1CCC(=O)O | 110
CC1CC(=O)NN=C1c1ccc(-n2cncn2)nc1 (configuration not stated) | 256 to 257
CSc1nnc(-c2cc3c([nH]c2=O)CCN(Cc2ccccc2)C3)o1 | 215 to 217
CCOC(=O)c1c(C)ncn1-c1ccc(Cl)c(Cl)c1 | 135 to 136
CC(=O)Oc1ccc2c3c(ccc2c1)C1CC=CC1(C)CC3 (configuration not stated) | 95 to 96
COc1ccc(-c2cc(Cl)cc3c2N(C)C(CN)CO3)c(C)c1 (configuration not stated) | 106
CC(CCCn1c(C)nc2c(N)nc3ccccc3c21)=NOCc1ccccc1 | 146 to 148
O=C(c1ccc(Cl)cc1)c1noc(CS(=O)c2ccccc2)n1 (configuration not stated) | 93 to 95
Cc1ccc(C(=O)N2CCOCC2)c(Nc2ccc3cn[nH]c3c2)n1 | 103 to 104
CSc1nnc2c(=O)[nH]c(-c3ccccc3OCC(C)C)nc2n1 | 237 to 238
O=C1Nc2ccc([N+](=O)[O-])cc2C(=O)N2CCC[C@@H]12 | 259 to 261
CN(C)C=C1CN=C(c2ccccc2)c2ccccc2C1=O | 131 to 133
CCOC(=O)C1=CC2(CCC1S(=O)(=O)Nc1ccc(F)cc1Cl)O[C@H]([C@H](O)CO)[C@@H]([C@H](O)CO)O2 (some centres not stated) | 55 to 56
N#Cc1ccc2c(c1)Sc1ccc(N)cc1C=C2 | 181 to 183
NS(=O)(=O)c1cccc(NC(=O)c2cnn3c(C(F)F)cc(-c4ccc(OC(F)(F)F)cc4)nc23)c1 | 231
CC(C)c1ccccc1-n1c(=O)[nH]c2c(C(N)=O)nc(-c3cccc(O)c3)nc21 | 322 to 324
O=S(=O)(NCC1CCN(C[C@H]2COc3ccc(Cl)cc3O2)CC1)c1ccc(F)cc1F | 119 to 121
CCCN1CC(c2ccc(C)cc2)=C(c2ccc(S(C)(=O)=O)cc2)C1=O | 156 to 158
CCCCC1=Nc2ccccc2SN1Cc1ccc(-c2ccccc2C(=O)O)cc1 | 125 to 130
